Results taken from patent EP0629405A1, “Agent for inhibiting a decrease in bone mass in renal osteodystrophy” (KUREHA CHEMICAL INDUSTRY CO., LTD., priority 1993, dated 1994).
Where two headings read alike, the source gives them in different places.

Key:
[1] = system: male SD rats with 7/8 of their kidney arteries ligated; assay: renal osteodystrophy model: rats with 7/8 of kidney arteries ligated, oral administration for 4 months; femur mineral content by single photon absorptiometry and bone histology; type: in vivo; conditions: sham-operated control 0.284± 0.023, ligation-operated control 0.259± 0.017
From the text: In view of these circumstances, the present inventors have made extensive investigations to develop novel rat models wherein renal insufficiency induces abnormal bone quality and low bone mass similar to clinical renal osteodystrophy. As a result, the present inventors have succeeded in obtaining an animal model with such diseases. Thus, after 7/8 of kidney arteries were ligated, animals endurable even for a long breeding term with a mild renal insufficiency were selected and carefully bred for 6 months to establish an animal model with renal osteodystrophy with accompanying abnormal bone quality and low bone mass.
After male SD rats with 7/8 of their kidney arteries ligated at 11 weeks old are bred for 8 weeks, 24R, 25-(OH)₂-D₃ and 24, 25-(OH)₂-D₃ (a racemate of 24R and 24S isomers) are administered orally to the rat for 4 months, respectively.
A solution of sesame oil (the Pharmacopoeia of Japan) containing 0.5 % ethanol is utilized as the solvent. The test is conducted by using 5 groups each of which consists of 6 to 10 rats as follows: • I. sham-operated control group (normal control group, solvent administration) n=8 • II. solvent administration control group n=6 • III. 24R, 25-(OH)₂-D₃ 0.1 µg/kg n=6 • IV. 24R, 25-(OH)₂-D₃ 5.0 µg/kg n=10 • V. 24, 25-(OH)₂-D₃ 5.0 µg/kg n=10
After administration, blood is anesthetically collected and applied to a biochemical serum analysis. After femur is resected, mineral content of femur is measured by means with equipment capable of measuring bone mass (single photon absorptiometry; SPA). Further, the bone tissue sample is stained by Villaneuva's bone staining after slicing, followed by observation under a microscope.

[2] = acute toxicity, oral administration in sesame oil, death rates for 2 weeks; conditions: mouse, in vivo, sesame oil containing 0.5 % ethanol, read-out: LD₅₀ (lethal dose, 50% mortality)
Description: The active compound of the present invention is tested for acute toxicity and the resultant data is shown as follows:
The active compound of the present invention, 24R, 25-(OH)₂-D₃ is admixed with a sesame oil (containing 0.5 % ethanol) and the mixture is orally administered to 4 groups of female and male ICR mice (each group has 5 mice) (body weight: male 29 to 33 g, female 22 to 29 g). Two weeks later, toxic symptom is observed.

C=C1CC[C@H](O)C/C1=C/C=C1\CCC[C@]2(C)[C@@H]([C@H](C)CC[C@@H](O)C(C)(C)O)CC[C@@H]12 [24R, 25-(OH)₂-D₃, 24R, 25-dihydroxycholecalciferol]
bone mass (mineral content of femur, SPA) ([1]; 0.1 µg/kg orally for 4 months): 0.291± 0.032 g/cm² | bone mass (mineral content of femur, SPA) ([1]; 5.0 µg/kg orally for 4 months): 0.292 ± 0.019 g/cm² | LD50 at 336 h ([2]; female ICR mice): 253 mg/kg | LD50 at 336 h ([2]; male ICR mice): 215 mg/kg

C=C1CC[C@H](O)C/C1=C/C=C1\CCC[C@]2(C)[C@@H]([C@H](C)CCC(O)C(C)(C)O)CC[C@@H]12 (some centres unmarked) [24, 25-(OH)₂-D₃, 24, 25-dihydroxycholecalciferol]
bone mass (mineral content of femur, SPA) ([1]; 5.0 µg/kg orally for 4 months): 0.282± 0.025 g/cm²
